Measurements as given in patent US7868188B2, “5-heteroaryl thiazoles and their use as PI3K inhibitors” (AstraZeneca AB, priority 2004, dated 2011).
Structures can show the parent of a compound that is named as a salt.

Tests used:
[1] = target: mTOR PI kinase-related kinase (Homo sapiens, UniProt P42345); assay: Test (b) In Vitro mTOR PI Kinase-Related Kinase Assay (AlphaScreen); assay type: biochemical; conditions: read-out: IC50 versus mTOR PI kinase-related kinase
Description: The assay used AlphaScreen technology (Gray et al., Analytical Biochemistry, 2003, 313: 234-245) to determine the ability of test compounds to inhibit phosphorylation by recombinant mTOR.
The HEK293 FLAG-tagged mTOR (1362-2549) stable cell line was routinely maintained at 37° C. with 5% CO2 up to a confluency of 70-90% in Dulbecco's modified Eagle's growth medium (DMEM; Invitrogen Limited, Paisley, UK Catalogue No. 41966-029) containing 10% heat-inactivated foetal calf serum (FCS; Sigma, Poole, Dorset, UK, Catalogue No. F0392), 1% L-glutamine (Gibco, Catalogue No. 25030-024) and 2 mg/ml Geneticin (G418 sulphate; Invitrogen Limited, UK Catalogue No. 10131-027). Following expression in the mammalian HEK293 cell line, expressed protein was purified using the FLAG epitope tag using standard purification techniques.
Test compounds were prepared as 10 mM stock solutions in DMSO and diluted into water as required to give a range of final assay concentrations. Aliquots (2 μl) of each compound dilution were placed into a well of a Greiner 384-well low volume (LV) white polystyrene plate (Greiner Bio-one). […]
Each reaction was stopped by the addition of 10 μl of a mixture of EDTA (50 mM), bovine serum albumin (BSA; 0.5 mg/ml) and Tris-HCl pH7.4 buffer (50 mM) containing p70 S6 Kinase (T389) 1A5 Monoclonal Antibody (Cell Signalling Technology, Catalogue No. 9206B) and AlphaScreen Streptavidin donor and Protein A acceptor beads (200 ng; Perkin Elmer, Catalogue No. 6760002B and 6760137R respectively) were added and the assay plates were left for about 20 hours at room temperature in the dark. The resultant signals arising from laser light excitation at 680 nm were read using a Packard Envision instrument.
Phosphorylated biotinylated peptide is formed in situ as a result of mTOR mediated phosphorylation. […] Upon laser light excitation at 680 nm, the donor bead: acceptor bead complex produces a signal that can be measured. […]
mTOR enzyme inhibition for a given test compound was expressed as an IC50 value.

[2] = test system: phosphorylation of Serine 473 in Akt (MDA-MB-468 cells); assay: Test (c) In Vitro phospho-Ser473 Akt Assay; assay type: cell-based; conditions: Homo sapiens, read-out: IC50 versus Serine 473 in Akt
Description: This assay determines the ability of test compounds to inhibit phosphorylation of Serine 473 in Akt as assessed using Acumen Explorer technology (Acumen Bioscience Limited), a plate reader that can be used to rapidly quantitate features of images generated by laser-scanning.
A MDA-MB-468 human breast adenocarcinoma cell line (LGC Promochem, Teddington, Middlesex, UK, Catalogue No. HTB-132) was routinely maintained at 37° C. with 5% CO2 up to a confluency of 70-90% in DMEM containing 10% heat-inactivated FCS and 1% L-glutamine.
For the assay, the cells were detached from the culture flask using ‘Accutase’ (Innovative Cell Technologies Inc., San Diego, Calif., USA; Catalogue No. AT104) using standard tissue culture methods and resuspended in media to give 1.7×10^5 cells per ml. Aliquots (90 μl) were seeded into each of the inner 60 wells of a black Packard 96 well plate (PerkinElmer, Boston, Mass., USA; Catalogue No. 6005182) to give a density of ˜15000 cells per well. Aliquots (90 μl) of culture media were placed in the outer wells to prevent edge effects. The cells were incubated overnight at 37° C. with 5% CO2 to allow them to adhere.
On day 2, the cells were treated with test compounds and incubated for 2 hours at 37° C. with 5% CO2. Test compounds were prepared as 10 mM stock solutions in DMSO and serially diluted as required with growth media to give a range of concentrations that were 10-fold the required final test concentrations. Aliquots (10 μl) of each compound dilution were placed in a well (in triplicate) to give the final required concentrations. As a minimum response control, each plate contained wells having a final concentration of 100 μM LY294002 (Calbiochem, Beeston, UK, Catalogue No. 440202). As a maximum response control, wells contained 1% DMSO instead of test compound. Following incubation, the contents of the plates were […] by treatment with a 1.6% aqueous formaldehyde solution (Sigma, Poole, Dorset, UK, Catalogue No. F1635) at room temperature for 1 hour.
All subsequent aspiration and wash steps were carried out using a Tecan 96 well late washer (aspiration speed 10 mm/sec). The fixing solution was removed and the contents of the plates were washed with phosphate-buffered saline (PBS; 50 μl; Gibco, Catalogue No. 10010015). The contents of the plates were treated for 10 minutes at room temperature with an aliquot (50 μl) of a cell permeabilisation buffer consisting of a mixture of PBS and 0.5% Tween-20. […] An aliquot of PBS (50 μl) was added to each well and the plates were sealed with black plate sealers and the fluorescence signal was detected and analysed.
Fluorescence dose response data obtained with each compound were analysed and the degree of inhibition of Serine 473 in Akt was expressed as an IC50 value.

Chain of mTOR PI kinase-related kinase (P42345 1362-2549): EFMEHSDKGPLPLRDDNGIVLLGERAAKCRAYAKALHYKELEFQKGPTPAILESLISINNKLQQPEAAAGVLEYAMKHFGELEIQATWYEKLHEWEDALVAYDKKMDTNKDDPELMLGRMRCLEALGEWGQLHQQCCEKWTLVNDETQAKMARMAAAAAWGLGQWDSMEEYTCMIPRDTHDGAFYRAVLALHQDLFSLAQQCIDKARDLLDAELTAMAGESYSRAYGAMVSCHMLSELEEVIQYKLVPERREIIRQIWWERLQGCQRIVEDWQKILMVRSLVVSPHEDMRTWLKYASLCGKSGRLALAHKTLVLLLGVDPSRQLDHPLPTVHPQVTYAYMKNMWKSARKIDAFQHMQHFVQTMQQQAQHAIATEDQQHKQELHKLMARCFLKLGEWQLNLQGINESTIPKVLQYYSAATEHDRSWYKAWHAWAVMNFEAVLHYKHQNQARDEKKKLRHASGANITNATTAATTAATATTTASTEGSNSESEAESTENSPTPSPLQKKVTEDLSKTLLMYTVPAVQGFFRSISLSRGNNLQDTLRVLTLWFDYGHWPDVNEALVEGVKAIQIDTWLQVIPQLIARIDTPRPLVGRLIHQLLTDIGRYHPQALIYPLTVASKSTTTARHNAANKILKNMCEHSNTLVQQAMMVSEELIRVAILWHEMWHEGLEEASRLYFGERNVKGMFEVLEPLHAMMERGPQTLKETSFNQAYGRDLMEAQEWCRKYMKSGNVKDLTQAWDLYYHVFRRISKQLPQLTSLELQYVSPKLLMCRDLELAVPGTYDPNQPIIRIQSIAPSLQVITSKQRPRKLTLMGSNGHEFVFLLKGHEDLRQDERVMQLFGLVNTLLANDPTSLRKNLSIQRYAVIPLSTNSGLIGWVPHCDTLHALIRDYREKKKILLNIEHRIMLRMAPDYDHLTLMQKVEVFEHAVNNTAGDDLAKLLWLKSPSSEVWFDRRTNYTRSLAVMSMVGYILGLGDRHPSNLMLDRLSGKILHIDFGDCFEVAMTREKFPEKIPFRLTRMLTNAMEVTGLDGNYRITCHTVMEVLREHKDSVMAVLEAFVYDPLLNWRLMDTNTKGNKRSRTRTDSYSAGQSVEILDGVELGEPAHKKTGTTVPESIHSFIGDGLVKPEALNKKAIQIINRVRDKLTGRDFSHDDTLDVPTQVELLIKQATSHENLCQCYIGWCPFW

IC50 [1] [nM] | IC50 [2] [nM] | Compound
~2000 | ~200 | CC(=O)Nc1nc(C)c(-c2cnc(Cl)c(NCc3ccc(F)cc3)c2)s1 [Compound No. 3 within Example 79, N-{5-[6-Chloro-5-(4-fluorobenzylamino)pyridin-3-yl]-4-methyl-1,3-thiazol-2-yl}acetamide]
~700 | ~200 | CC(=O)Nc1nc(C)c(-c2cnc(Cl)c(S(=O)(=O)Nc3ccccc3)c2)s1 [Compound No. 4 within Example 73, N-{5-[6-Chloro-5-(N-phenylsulfamoyl)pyridin-3-yl]-4-methyl-1,3-thiazol-2-yl]acetamide]
~20 | ~300 | CC(=O)Nc1nc(C)c(-c2cnc(Cl)c(NS(C)(=O)=O)c2)s1 [Example 28, N-[5-(6-Chloro-5-methylsulfonylaminopyridin-3-yl)-4-methyl-1,3-thiazol-2-yl]acetamide trifluoroacetate]
